Marks after values point to notes of the source that are not given here.
What was measured:
[1] = tested on: MPTP-treated squirrel monkeys; test: post-mortem striatal dopamine and metabolite levels by HPLC, squirrel monkeys; assay type: in vivo; conditions: MPTP/GM1, average (S.D.)
Protocol: (§1) Post-mortem neurochemical examinations of striatal tissue were carried out for the determination of dopamine (DA) and relevant metabolites, e.g. homovanillic acid (HVA), and […] (DOPAC). DA and relevant metabolites striatal levels were quantified by electrochemical […] high pressure liquid chromatography (HPLC) (Schneider J. S., Brain Res., 24, 534, 1990).

cerebellar granule cells = test: TOPA neurotoxicity in cerebellar granule cell cultures, MTT assay; assay type: cell-based; conditions: for Neuronal survival (%): control = 100%
Protocol: Granular cell cultures were obtained from 8-day rat cerebella and cultured (3×10^6 cells) on plates coated with poly-L-lysine substrate according to Skaper et al. (Skaper S. D. et al.: “Culture and use of primary and clonal neural cells”, Methods in Neurosciences, Ed. by P. M. Conn, Vol. 2, pp. 17-33, Academic Press, Orlando, 1990).
Twenty-four hours later, cytosine arabinoside (10 μM) was added to inhibit non-neuronal proliferation. Cerebellar granule cells were used 10-12 days later without changing the medium.
Cells were incubated with TOPA either for 40 minutes (100 μM acute exposure) or for 24 h (10 μM prolonged exposure).
Treatment with GM1, AGF2, AGF4 (100 μM) and LIGA 20 (1-30 μm) was carried out as follows:
2-hour pretreatment before acute incubation with TOPA;
cotreatment only with LIGA 20 before acute incubation with TOPA;
pretreatment with/without cotreatment before (100 μM for 2 h) and/or during (100 μM for 24 h) prolonged incubation with TOPA. TOPA cytotoxicity was determined by evaluating cellular survival, and more precisely:
MTT colorimetric assay of cerebellar neurons, as described by Mosmann (Mosmann T.: “Rapid colorimetric assay for cellular growth and survival: application to proliferation and cytotoxicity assays”, J. Immunol. Meth., 65, 55-63, 1983).
Cytotoxicity is expressed as per cent cellular survival.
The results of the two tests (in triplicate) were analysed statistically according to Duncan's test. A brief description of same is reported below:
In FIG. 3 the dose-dependent protective effect of LIGA20 against TOPA-induced death of cultured cerebellar granule cells is represented. Cells were exposed concurrently to 100 μM TOPA and 1-30 μM LIGA20 or 200 μM GM1 in Locke's solution for 45 minutes (24° C.), washed and returned to their original medium. Survival was assessed 24 h later by the MTT method. Means±S.E.M. (n=9, 3 experiments). TOPA ( ), LIGA 20 ( ), GM1 ( ).
In vitro granule cells at the 11th day were incubated as indicated above. In the 40-minute exposure to TOPA, GM1 (100 μM) was used in 2-h pretreatment only. In the […] exposure to TOPA, GM1 (100 μM) was used either in 2-h pretreatment only or in 2-h pretreatment and in cotreatment with TOPA. The values are expressed with reference to the corresponding control cultures (=100%) and are an average (±S.D.) of two determinations, each being carried out in triplicate.

[2] = tested on: MPTP-treated cynomolgus monkeys; test: post-mortem striatal dopamine and metabolite levels by HPLC, cynomolgus monkeys; assay type: in vivo; conditions: MPTP/GM1, average (S.D.)
Protocol: as §1

[3] = tested on: MPTP-treated cynomolgus monkeys; test: motor behaviour rating of MPTP-treated cynomolgus monkeys; assay type: in vivo; conditions: GM1 15 mg/kg/day i.m.; p<0.05 vs saline solution
Protocol: In vivo experiments with GM1 were carried out on 15 (male or female) squirrel monkeys and 4 cynomolgus monkeys.
The monkeys were administered MPTP saline solution after being anaesthesized i.m. with ketamine HCl 5 mg/kg, as follows:
0.35 mg/kg/dose, i.v. (cynomolgus monkeys)
MPTP was administered every third day until complete manifestation of parkinsonian motor symptomatology was obtained, i.e. akinesia, lack of responsiveness to stimulation, inability to climb, to feed autonomously, and to groom. Thirty points min. (as will be defined in the explanation of FIG. 1) had to be obtained during the 48-60 hours following the last MPTP administration; then animals in pairs were subdivided at random into two treatment groups, i.e. treatment with GM1 or with saline solution. […]
In particular, the following functions were recorded: overall activity, ability to climb, locomotion/gait, upper and lower limb movements, detailed motor ability, bradykinesia/akinesia, dyskinesia/dystonia, carriage, tremor, balance, grooming ability, sudden immobility during movements, and ability to feed. […]
FIGS. 1 and 2 are now being considered in detail. […] Columns represent the average points (±S.D.); normal point is 0, MPTP points are the points recorded after the last MPTP injection but prior to the administration of associated GM1-saline solution. […]

monosialoganglioside [GM1]
DA striatal level ([1]; Dorsolateral caudatum): 8.6(1.2)* ng/mg protein | DOPAC striatal level ([1]; Dorsolateral caudatum): 3.3(0.9)* ng/mg protein | HVA striatal level ([1]; Dorsolateral caudatum): 46.2(6.5)* ng/mg protein | DA striatal level ([1]; Dorsolateral putamen): 4.2(0.8)* ng/mg protein | DOPAC striatal level ([1]; Dorsolateral putamen): 1.3(0.2)* ng/mg protein | HVA striatal level ([1]; Dorsolateral putamen): 45.9(6.9)* ng/mg protein | DA striatal level ([1]; Ventromedial caudatum): 37.4(4.2)* ng/mg protein | DOPAC striatal level ([1]; Ventromedial caudatum): 12.7(3.6)* ng/mg protein | HVA striatal level ([1]; Ventromedial caudatum): 56.6(11.9)* ng/mg protein | DA striatal level ([1]; Ventromedial putamen): 21.9(6.1)* ng/mg protein | DOPAC striatal level ([1]; Ventromedial putamen): 5.9(1.6)* ng/mg protein | HVA striatal level ([1]; Ventromedial putamen): 87.5(17.3)* ng/mg protein | Neuronal survival (%) (cerebellar granule cells; GM1 100 μM 2-h pretreatment and cotreatment, TOPA 10 μM 24-h exposure): 75.4 ± 5.5 (b) % | Neuronal survival (%) (cerebellar granule cells; GM1 100 μM 2-h pretreatment only, TOPA 10 μM 24-h exposure): 57.0 ± 6.5 (a) % | Neuronal survival (%) (cerebellar granule cells; GM1 100 μM 2-h pretreatment only, then TOPA 100 μM 40-minute exposure): 72.4 ± 5.8 (a) % | protection against the acute toxicity of TOPA in cotreatment (cerebellar granule cells; GM1 up to 200 μM, cotreatment with 100 μM TOPA for 45 minutes (FIG. 3)): not active | DA striatal level ([2]; Dorsolateral caudatum): 4.4(0.6)* ng/mg protein | DOPAC striatal level ([2]; Dorsolateral caudatum): 2.7(0.3)* ng/mg protein | HVA striatal level ([2]; Dorsolateral caudatum): 55.9(12.0)* ng/mg protein | DA striatal level ([2]; Dorsolateral putamen): 3.7(0.9) ng/mg protein | DOPAC striatal level ([2]; Dorsolateral putamen): 2.1(0.8)* ng/mg protein | HVA striatal level ([2]; Dorsolateral putamen): 51.9(9.4)* ng/mg protein | DA striatal level ([2]; Ventromedial caudatum): 12.9(2.8)* ng/mg protein | DOPAC striatal level ([2]; Ventromedial caudatum): 6.6(0.7)* ng/mg protein | HVA striatal level ([2]; Ventromedial caudatum): 60.9(6.9)* ng/mg protein | DA striatal level ([2]; Ventromedial putamen): 11.2(4.1)* ng/mg protein | DOPAC striatal level ([2]; Ventromedial putamen): 7.1(3.2)* ng/mg protein | HVA striatal level ([2]; Ventromedial putamen): 100.3(11.9)* ng/mg protein | motor behaviour at the investigation end [3]: almost normal behaviour

Source: patent US6620792B1, “Pharmaceutical compositions containing monosialoganglioside GM1 or derivative thereof suitable for the treatment of parkinson's disease” (Fidia S.p.A., priority 1992, dated 2003)
